Results taken from ChEMBL document CHEMBL6153026, “Small-Molecule Modulators Targeting Coactivator-Associated Arginine Methyltransferase 1 (CARM1) as Therapeutic Agents for Cancer Treatment: Current Medicinal Chemistry Insights and Emerging Opportunities” (J Med Chem, 2025).
Each block holds one molecule with its values, some of them ahead of it.

Assays:
[1] = target: T1, Histone-arginine methyltransferase CARM1 (Homo sapiens, UniProt Q86X55); test: Inhibition of C-terminal His-tagged human CARM1 catalytic domain (135 to 479 residues) extracted from Escherichia coli BL21 CodonPlus (DE3)-RIL cells using (H3(3-31)) as substrate by enzymatic assay
T1 sequence (Q86X55 whole entry): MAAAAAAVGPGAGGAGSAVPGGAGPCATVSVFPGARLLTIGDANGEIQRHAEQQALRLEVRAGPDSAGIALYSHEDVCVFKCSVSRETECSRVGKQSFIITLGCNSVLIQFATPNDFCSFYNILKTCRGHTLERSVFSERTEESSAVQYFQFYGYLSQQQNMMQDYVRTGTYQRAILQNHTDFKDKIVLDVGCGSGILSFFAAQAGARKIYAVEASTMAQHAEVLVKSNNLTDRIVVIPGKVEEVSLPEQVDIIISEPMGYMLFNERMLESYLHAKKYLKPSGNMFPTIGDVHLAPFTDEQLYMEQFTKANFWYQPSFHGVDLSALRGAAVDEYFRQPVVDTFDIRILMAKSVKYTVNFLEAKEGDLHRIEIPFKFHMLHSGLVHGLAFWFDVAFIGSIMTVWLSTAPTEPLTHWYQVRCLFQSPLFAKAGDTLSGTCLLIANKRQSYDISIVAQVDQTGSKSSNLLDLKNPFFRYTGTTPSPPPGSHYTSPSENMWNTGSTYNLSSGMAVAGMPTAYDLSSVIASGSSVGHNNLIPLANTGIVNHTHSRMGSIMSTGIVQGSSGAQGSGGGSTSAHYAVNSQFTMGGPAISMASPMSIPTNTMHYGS

Homo sapiens = species on record: Homo sapiens; test: Selectivity ratio of IC50 for human PRMT6 to IC50 for human PRMT4
MV4-11 = test: Antiproliferative activity against human MV4-11 cells assessed as reduction in cell viability; type: functional, cell-based
[2] = target: Protein arginine N-methyltransferase 6 (Homo sapiens, UniProt Q96LA8); test: Inhibition of PRMT6 (unknown origin) by scintillation proximity assay
Sequence of Protein arginine N-methyltransferase 6 (Q96LA8 whole entry): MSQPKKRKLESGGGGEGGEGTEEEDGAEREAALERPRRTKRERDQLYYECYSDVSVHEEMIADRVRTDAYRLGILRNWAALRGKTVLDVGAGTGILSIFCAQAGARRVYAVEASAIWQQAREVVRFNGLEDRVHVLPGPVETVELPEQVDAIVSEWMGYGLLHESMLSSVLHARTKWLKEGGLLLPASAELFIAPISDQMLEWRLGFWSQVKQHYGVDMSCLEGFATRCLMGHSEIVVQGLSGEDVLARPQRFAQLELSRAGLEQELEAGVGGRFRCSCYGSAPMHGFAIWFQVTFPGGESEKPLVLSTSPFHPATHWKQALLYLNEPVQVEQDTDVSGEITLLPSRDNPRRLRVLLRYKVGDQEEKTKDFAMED

[3] = target: T1, Histone-arginine methyltransferase CARM1; test: Inhibition of GST-tagged CARM1 (unknown origin) extracted form Escherichia coli BL21 (DE3) by MTase-Glo reagent based luminometer analysis
MCF7 = test: Cytotoxicity against human MCF7 cells assessed as reduction in cell viability by MTS assay; type: functional, cell-based
[4] = target: T1, Histone-arginine methyltransferase CARM1; test: Inhibition of CARM1 (unknown origin)
DU-145 = test: Antiproliferative activity against human DU-145 cells assessed as reduction in cell viability incubated for 72 hrs by MTT assay; type: functional, cell-based; conditions: DU-145, 72 h
[5] = target: T1, Histone-arginine methyltransferase CARM1; test: Inhibition of PRMT4 (unknown origin)
[6] = target: T1, Histone-arginine methyltransferase CARM1; test: Inhibition of human N-terminal 6xHis-tagged CARM1 catalytic domain (140 to 480 residues) using histone H3 as substrate and SAM as cofactor by radiometric HotSpot assay
[7] = target: Protein arginine N-methyltransferase 5 (Homo sapiens, UniProt O14744); test: Inhibition of PRMT5 (unknown origin)
Sequence of Protein arginine N-methyltransferase 5 (O14744 whole entry): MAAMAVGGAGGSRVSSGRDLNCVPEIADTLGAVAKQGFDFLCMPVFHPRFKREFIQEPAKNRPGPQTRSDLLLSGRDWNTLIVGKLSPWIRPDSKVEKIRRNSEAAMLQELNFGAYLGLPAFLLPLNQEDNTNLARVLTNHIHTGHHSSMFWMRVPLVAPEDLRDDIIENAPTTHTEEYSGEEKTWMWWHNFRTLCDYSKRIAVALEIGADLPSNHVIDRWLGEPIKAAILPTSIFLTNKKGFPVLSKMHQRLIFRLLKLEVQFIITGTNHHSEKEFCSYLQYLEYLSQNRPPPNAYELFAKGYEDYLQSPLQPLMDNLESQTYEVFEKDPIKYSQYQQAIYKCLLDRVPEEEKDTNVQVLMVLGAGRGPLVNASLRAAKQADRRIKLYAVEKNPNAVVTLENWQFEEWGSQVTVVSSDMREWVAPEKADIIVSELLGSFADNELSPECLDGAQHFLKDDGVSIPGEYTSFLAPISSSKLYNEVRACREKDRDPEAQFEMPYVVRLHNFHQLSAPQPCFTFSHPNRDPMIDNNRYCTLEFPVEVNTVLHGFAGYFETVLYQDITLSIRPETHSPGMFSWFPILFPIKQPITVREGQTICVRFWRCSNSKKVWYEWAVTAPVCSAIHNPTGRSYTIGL

[8] = Lipophilicity, logP of compound; type: physicochemical; conditions: octanol/water
[9] = target: Protein arginine N-methyltransferase 3 (Homo sapiens, UniProt O60678); test: Inhibition of PRMT3 (unknown origin)
Sequence of Protein arginine N-methyltransferase 3 (O60678 whole entry): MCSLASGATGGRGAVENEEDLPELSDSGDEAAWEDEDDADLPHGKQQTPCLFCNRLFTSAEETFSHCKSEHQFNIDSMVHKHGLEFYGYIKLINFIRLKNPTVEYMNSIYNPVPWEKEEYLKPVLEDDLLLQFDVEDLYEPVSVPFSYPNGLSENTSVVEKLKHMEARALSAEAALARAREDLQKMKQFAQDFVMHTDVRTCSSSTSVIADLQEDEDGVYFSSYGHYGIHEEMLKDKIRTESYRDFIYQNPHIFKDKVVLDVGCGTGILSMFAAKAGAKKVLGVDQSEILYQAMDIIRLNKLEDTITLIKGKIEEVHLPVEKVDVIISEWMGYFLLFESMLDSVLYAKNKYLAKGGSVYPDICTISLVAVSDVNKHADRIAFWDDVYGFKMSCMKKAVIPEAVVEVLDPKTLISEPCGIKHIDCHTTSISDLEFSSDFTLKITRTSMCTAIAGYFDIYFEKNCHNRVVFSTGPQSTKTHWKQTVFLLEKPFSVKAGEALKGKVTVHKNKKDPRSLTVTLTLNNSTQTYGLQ

ASPC1 = test: Antitumor activity in human ASPC1 cells xenografted in BALB/c nude mouse assessed as tumor growth inhibition at 100 mg/kg, relative to control; type: functional; set-up: scale not given: the % may be the effect or the level left

- Ratio IC50 (Homo sapiens): 197
Structure (SMILES): C[C@H](N)C(=O)Nc1ccc2[nH]cc(-c3cccc(S(C)(=O)=O)c3)c2c1

- IC50 (MV4-11): 4550 nM
Structure (SMILES): CNCCN(C)Cc1ccccc1OCc1cccc(Cl)c1Cl

- IC50 [4]: < 1 nM
Structure (SMILES): N=C(NCCCN(CCNC(=O)NCc1ccccc1)C[C@H]1O[C@@H](n2cnc3c(N)ncnc32)[C@H](O)[C@@H]1O)Nc1cccc(Br)c1

- IC50 (DU-145): < 1000 nM
Structure (SMILES): CNCCNCc1cccc(-c2nc(Nc3cccc(OCCCCCCC(=O)NO)c3)c(C)c(-c3ccnc4[nH]ccc34)n2)c1

- IC50 [5]: 60 nM
- IC50 [4]: 500 nM
Structure (SMILES): C[C@H](N)C(=O)Nc1ccc2[nH]nc(-c3cccc(S(=O)(=O)N(C)C)c3)c2c1

- IC50 [6]: 43 nM
Structure (SMILES): COC1CCC(CCNC(=O)[C@H](CC[C@H](CNCc2ccccc2)C[C@H]2O[C@@H](n3cnc4c(N)ncnc43)[C@H](O)[C@@H]2O)NC(=O)CC(C)(C)C2=C(C)C(=O)C(C)=C(C)C2=O)CC1 (stereo partly drawn)

- IC50 [4]: 42400 nM
Structure (SMILES): OCCNCCNCc1ccccc1OCc1ccc(Cl)cc1Cl

- logP [8]: 4.48
- IC50 [4]: 780 nM
Structure (SMILES): CCOC(=O)c1cc(C(=O)NCc2ccccc2CCC(F)(F)F)n(-c2cccc(NC(=O)[C@H](C)N)c2)c1

The remaining lines, values behind:

Structure (SMILES): Nc1ncnc2c1ncn2[C@H]1O[C@@H](CN(CCCNc2ccccn2)CC[C@H](N)C(=O)O)[C@H](O)[C@@H]1O
- IC50 [1]: 1110 nM

Structure (SMILES): NCCN1CCC(Cc2ccccc2)CC1
- IC50 [2]: 300 nM

Structure (SMILES): CNCC(=O)N1CCOc2c(O)cc(-c3cccc(Cl)c3)cc2C1
- IC50 [3]: 42200 nM
- IC50 (MCF7): 8260 nM

Structure (SMILES): C[C@H](N)C(=O)Nc1ccc2c(c1)c(-c1cccc(S(=O)(=O)N(C)C)c1)cn2C
- Ratio IC50 (Homo sapiens): > 500
- IC50 [4]: < 2 nM

Structure (SMILES): NC(=O)[C@@H](N)CCCNCNCCCSC[C@H]1O[C@H](n2cnc3c(N)ncnc32)[C@H](O)[C@@H]1O
- IC50 [7]: 0.42 nM

Structure (SMILES): C[C@H](N)C(=O)NCc1cccc(-n2cc(C(F)(F)F)cc2C(=O)NCc2ccccc2)c1
- logP [8]: 3.8
- IC50 [4]: 7230 nM

Structure (SMILES): NCCCN(CCCNc1ccccn1)C[C@@H]1O[C@H](n2cnc3c(N)ncnc32)[C@@H](O)[C@H]1O
- IC50 [1]: 1140 nM

Structure (SMILES): Nc1ncnc2c1ncn2[C@@H]1O[C@H](CSCC[C@H](N)C(=O)O)[C@@H](O)[C@H]1O [S-ADENOSYLHOMOCYSTEINE]
- IC50 [9]: < 5 nM

Structure (SMILES): C[S+](CC[C@H](N)C(=O)[O-])C[C@H]1O[C@@H](n2cnc3c(N)ncnc32)[C@H](O)[C@@H]1O (stereo partly drawn) [ADEMETIONINE]
- IC50 [4]: 2.8 nM

Structure (SMILES): CNC[C@@H](O)COc1ccc(Cl)c(-c2nc(-c3c(C)noc3C)c(C)c(N3CC4(CCN(C(=O)OC)CC4)C3)n2)c1
- Activity (ASPC1): 52%
